Data as given in PMC9516332 (Frontiers in Oncology, 2022).
Like-named read-outs stand apart in the source and are kept apart here.

Experiments:
[1] = system: AP-1060 (ETV6-NTRK3); experiment: Cell viability assay
[2] = system: 134 cancer cell lines; experiment: Cell viability assay (ATPlite, 72 hours), IC50 on cancer cell line panel

IC50 ([2]; HEC-6, read-out: IC50 in cell proliferation assay, HEC-6 cell line (EGFR p.A289V)): > 31.6 µM
IC50 ([2]; Homo sapiens, 769-P, read-out: IC50 in cell proliferation assay, cell line 769-P): > 31.6 µM
IC50 ([2]; Homo sapiens, 786-0, read-out: IC50 in cell proliferation assay, cell line 786-O): > 31.6 µM
IC50 ([2]; Homo sapiens, A 172, read-out: IC50 in cell proliferation assay, cell line A-172): > 31.6 µM
IC50 ([2]; Homo sapiens, A204, read-out: IC50 in cell proliferation assay, cell line A-204): > 31.6 µM
IC50 ([2]; Homo sapiens, A498, read-out: IC50 in cell proliferation assay, cell line A-498): > 31.6 µM
IC50 ([2]; Homo sapiens, A549, read-out: IC50 in cell proliferation assay, cell line A-549): > 31.6 µM
IC50 ([2]; Homo sapiens, A704, read-out: IC50 in cell proliferation assay, cell line A-704): > 31.6 µM
IC50 ([2]; Homo sapiens, A-375, read-out: IC50 in cell proliferation assay, cell line A-375 (BRAF p.V600E)): > 31.6 µM
IC50 ([2]; Homo sapiens, A-427, read-out: IC50 in cell proliferation assay, cell line A-427): > 31.6 µM
IC50 ([2]; Homo sapiens, ACHN, read-out: IC50 in cell proliferation assay, cell line ACHN): > 31.6 µM
IC50 ([2]; Homo sapiens, AN3-CA, read-out: IC50 in cell proliferation assay, cell line AN3-CA (FGFR2 p.N549K)): > 31.6 µM
IC50 ([2]; Homo sapiens, ASPC1, read-out: IC50 in cell proliferation assay, cell line AsPC-1): > 31.6 µM
IC50 ([2]; Homo sapiens, AU565, read-out: IC50 in cell proliferation assay, cell line AU565 (ERBB2 amplification)): > 31.6 µM
IC50 ([2]; Homo sapiens, BT-20, read-out: IC50 in cell proliferation assay, cell line BT-20): > 31.6 µM
IC50 ([2]; Homo sapiens, BT-474, read-out: IC50 in cell proliferation assay, cell line BT-474 (ERBB2 amplification)): > 31.6 µM
IC50 ([2]; Homo sapiens, BT-549, read-out: IC50 in cell proliferation assay, cell line BT-549): > 31.6 µM
IC50 ([2]; Homo sapiens, BXPC-3, read-out: IC50 in cell proliferation assay, cell line BxPC-3): > 31.6 µM
IC50 ([2]; Homo sapiens, C-33-A, read-out: IC50 in cell proliferation assay, cell line C-33 A): > 31.6 µM
IC50 ([2]; Homo sapiens, CAL-27, read-out: IC50 in cell proliferation assay, cell line CAL-27): > 31.6 µM
IC50 ([2]; Homo sapiens, CCF-STTG1, read-out: IC50 in cell proliferation assay, cell line CCF-STTG1): > 31.6 µM
IC50 ([2]; Homo sapiens, CCRF-CEM, read-out: IC50 in cell proliferation assay, cell line CCRF-CEM): > 31.6 µM
IC50 ([2]; Homo sapiens, COLO 205, read-out: IC50 in cell proliferation assay, cell line COLO 205 (BRAF p.V600E)): > 31.6 µM
IC50 ([2]; Homo sapiens, COLO-829, read-out: IC50 in cell proliferation assay, cell line COLO 829 (BRAF p.V600E)): > 31.6 µM
IC50 ([2]; Homo sapiens, DLD-1, read-out: IC50 in cell proliferation assay, cell line DLD-1): > 31.6 µM
IC50 ([2]; Homo sapiens, DU-4475, read-out: IC50 in cell proliferation assay, cell line DU4475 (BRAF p.V600E)): > 31.6 µM
IC50 ([2]; Homo sapiens, Daoy, read-out: IC50 in cell proliferation assay, cell line Daoy): > 31.6 µM
IC50 ([2]; Homo sapiens, DoTc2-4510, read-out: IC50 in cell proliferation assay, cell line DoTc2 4510): > 31.6 µM
IC50 ([2]; Homo sapiens, EOL1, read-out: IC50 in cell proliferation assay, cell line EoL-1 (FIP1L1-PDGFRA)): > 31.6 µM
IC50 ([2]; Homo sapiens, FaDu, read-out: IC50 in cell proliferation assay, cell line FaDu): > 31.6 µM
IC50 ([2]; Homo sapiens, G-361, read-out: IC50 in cell proliferation assay, cell line G-361 (BRAF p.V600E)): > 31.6 µM
IC50 ([2]; Homo sapiens, HCC827, read-out: IC50 in cell proliferation assay, cell line HCC827 (EGFR exon19del)): > 31.6 µM
IC50 ([2]; Homo sapiens, HCC4006, read-out: IC50 in cell proliferation assay, cell line HCC4006 (EGFR exon19del)): > 31.6 µM
IC50 ([2]; Homo sapiens, HCT-15, read-out: IC50 in cell proliferation assay, cell line HCT 15): > 31.6 µM
IC50 ([2]; Homo sapiens, HCT-116, read-out: IC50 in cell proliferation assay, cell line HCT 116): > 31.6 µM
IC50 ([2]; Homo sapiens, HEC-1, read-out: IC50 in cell proliferation assay, HEC-1 cell line): > 31.6 µM
IC50 ([2]; Homo sapiens, HEC-1B, read-out: IC50 in cell proliferation assay, HEC-1-B cell line (EGFR p.A864V)): > 31.6 µM
IC50 ([2]; Homo sapiens, HL-60, read-out: IC50 in cell proliferation assay, HL-60 cell line): > 31.6 µM
IC50 ([2]; Homo sapiens, HT, read-out: IC50 in cell proliferation assay, HT cell line): > 31.6 µM
IC50 ([2]; Homo sapiens, HT-1080, read-out: IC50 in cell proliferation assay, HT-1080 cell line): > 31.6 µM
IC50 ([2]; Homo sapiens, Hs746T, read-out: IC50 in cell proliferation assay, Hs 746.T cell line (MET exon14skip + amplification)): > 31.6 µM
IC50 ([2]; Homo sapiens, Hs-578T, read-out: IC50 in cell proliferation assay, Hs 578T cell line): > 31.6 µM
IC50 ([2]; Homo sapiens, HuTu80, read-out: IC50 in cell proliferation assay, HuTu 80 cell line): > 31.6 µM
IC50 ([2]; Homo sapiens, J82, read-out: IC50 in cell proliferation assay, J82 cell line): > 31.6 µM
IC50 ([2]; Homo sapiens, Jurkat E6.1, read-out: IC50 in cell proliferation assay, Jurkat E6.1 cell line): > 31.6 µM
IC50 ([2]; Homo sapiens, K562, read-out: IC50 in cell proliferation assay, K-562 cell line): > 31.6 µM
IC50 ([2]; Homo sapiens, KATO III, read-out: IC50 in cell proliferation assay, KATO III cell line (FGFR2 amplification)): > 31.6 µM
IC50 ([2]; Homo sapiens, KG-1, read-out: IC50 in cell proliferation assay, KG-1 cell line (FGFR1OP2-FGFR1)): > 31.6 µM
IC50 ([2]; Homo sapiens, KLE, read-out: IC50 in cell proliferation assay, KLE cell line): > 31.6 µM
IC50 ([2]; Homo sapiens, KMS-11, read-out: IC50 in cell proliferation assay, KMS-11 cell line (FGFR3 p.Y373C)): > 31.6 µM
IC50 ([2]; Homo sapiens, KU812, read-out: IC50 in cell proliferation assay, Ku812 cell line): > 31.6 µM
IC50 ([2]; Homo sapiens, Kasumi 1, read-out: IC50 in cell proliferation assay, Kasumi-1 cell line (KIT p.N822K)): > 31.6 µM
IC50 ([2]; Homo sapiens, LC-2-ad, read-out: IC50 in cell proliferation assay, LC-2/ad cell line (CCDC6-RET)): > 31.6 µM
IC50 ([2]; Homo sapiens, LNCaP-Clone-FGC, read-out: IC50 in cell proliferation assay, LNCaP clone FGC cell line): > 31.6 µM
IC50 ([2]; Homo sapiens, LS174T, read-out: IC50 in cell proliferation assay, LS174T cell line): > 31.6 µM
IC50 ([2]; Homo sapiens, LS-411N, read-out: IC50 in cell proliferation assay, LS411N cell line (BRAF p.V600E)): > 31.6 µM
IC50 ([2]; Homo sapiens, LoVo, read-out: IC50 in cell proliferation assay, LoVo cell line): > 31.6 µM
IC50 ([2]; Homo sapiens, MCF7, read-out: IC50 in cell proliferation assay, MCF-7 cell line): > 31.6 µM
IC50 ([2]; Homo sapiens, MDA-MB-231, read-out: IC50 in cell proliferation assay, MDA-MB-231 cell line): > 31.6 µM
IC50 ([2]; Homo sapiens, MDA-MB-453, read-out: IC50 in cell proliferation assay, MDA-MB-453 cell line): > 31.6 µM
IC50 ([2]; Homo sapiens, MDA-MB-468, read-out: IC50 in cell proliferation assay, MDA-MB-468 cell line): > 31.6 µM
IC50 ([2]; Homo sapiens, MG-63, read-out: IC50 in cell proliferation assay, MG-63 cell line): > 31.6 µM
IC50 ([2]; Homo sapiens, MIA PaCa-2, read-out: IC50 in cell proliferation assay, MIA PaCa-2 cell line): > 31.6 µM
IC50 ([2]; Homo sapiens, MKN-45, read-out: IC50 in cell proliferation assay, MKN45 cell line (MET amplification)): > 31.6 µM
IC50 ([2]; Homo sapiens, MOLM-13, read-out: IC50 in cell proliferation assay, MOLM-13 cell line (FLT3 ITD)): 12.6 µM
IC50 ([2]; Homo sapiens, MOLT-4, read-out: IC50 in cell proliferation assay, MOLT-4 cell line): > 31.6 µM
IC50 ([2]; Homo sapiens, MV4-11, read-out: IC50 in cell proliferation assay, MV4-11 cell line (FLT3 ITD)): 26.5 µM
Compound: O=C(Nc1cnn2ccc(N3CCC[C@@H]3c3cc(F)ccc3F)nc12)N1CC[C@H](O)C1 [larotrectinib]
potency in AP-1060 compared to entrectinib ([1]; cell viability): around four-fold more potent
IC50 ([1]; read-out: IC50 in cell proliferation assay): 0.009 µM
